Data: a melting point compilation (Tetko et al.)

Compound | melting point [°C]
O=[N+]([O-])c1ccc(I)c(Cl)c1 | 99
Nc1csc(C(F)(F)F)c1-c1ccccc1 | 65 to 66
C[C@]12CC[C@H]3[C@@H](CCC4CC(=O)CC[C@@]43C)C1=CCC2=O (some centres undefined) | 151
CCOC(=O)c1c(NC(=S)Nc2ccc(OC)cc2)sc2c1CCCC2 | 163 to 165
c1ccc2c(c1)ccc1[nH]c3ccccc3c12 | 134
CCCN(CCC)c1c([N+](=O)[O-])cc(S(N)(=O)=O)cc1[N+](=O)[O-] | 141
NS(=O)(=O)c1ccc(SCCCCO)s1 | 48.5
CC(C)OC(=O)C(C(=O)OC(C)C)=C1SCCS1 | 54.9
O=C1Nc2ccc(Br)cc2C1=O | 251 to 253
CC1=C(c2ccccc2)c2ccccc2/C1=N/NC(N)=O | 200 to 201
O=C(O)[C@@H]1Cc2ccccc2CN1 | 300
O=C(Cl)CCCCl | -47
Nc1nn2c(-c3ccccc3)cc(=O)[nH]c2c1/N=N/c1ccc(Cl)cc1 | 312
CCOc1ccccc1C(C)=O | 40
CCCCCCCCCCCC(=O)OCCOCCO | 17.5
CCC=C1CCC2C3CCC4CC(OC(C)=O)CCC4(C)C3CCC12C (centres undefined) | 114
Cn1ccc2ccc(C=O)cc21 | 81
ClCc1ccc(Br)cc1 | 50
O=C1OC(=O)C23Cc4ccccc4CC12Cc1cc2c(cc1C3)CC2 (centres undefined) | 248 to 252
O[C@@H]1CCCC[C@H]1NCc1ccccc1 (relative stereo) | 69 to 72
O=S(=O)(c1ccc(Cl)cc1)N(C1CCNCC1)C1CC1 | 111 to 114
CCc1cc2c(cc1C(C)=O)C(C)(C)CCC2(C)C | 46.5
COc1ccc(CO)cc1OCc1ccccc1 | 85
Cc1cc(C)n(-c2ccc(C(=O)O)cc2)n1 | 163
COc1ccc(N=C(S)SC)cc1 | 111 to 113
Oc1c(Br)c(Br)c(O)c(Br)c1Br | 255 to 260

Compound | melting point [°C]
CCCc1ccc(-c2ccccc2)cc1 | 15 to 17
N#CC(CCN1CCC(C(N)=O)(N2CCCCC2)CC1)(c1ccccc1)c1ccccc1 | 150
Nc1ccc([N+](=O)[O-])c2c1C(=O)c1c(Cl)ccc(Cl)c1C2=O | 307
CN(C)CCN(C)C | -55
ClCCc1ccc(CCCl)cc1 | 47
CC1(C)OC(=O)C(=Cc2cccs2)C(=O)O1 | 182
CCCCCCCCCCCCCCCCCCCC(=O)OC | 54.5
NC(=S)c1cccc(Cl)c1Cl | 121 to 123
CC(=O)Nc1cc(NC(C)=O)c(OCCO)cc1OCCO | 206
CCOCCC(=O)OCC | -75
Cc1ccc(S)cc1 | 43
CCOC(=O)c1sc2sc(C#N)c(N)c2c1N | 260
Oc1cccc2c(O)nccc12 | 270 to 275
Cc1cc(C)c2c(c1)CC2=O | 48
O=C(O)CC(O)(C(F)(F)F)C(F)(F)F | 87
COC(=O)C(C)N(C(=O)Cc1ccccc1)c1c(C)cccc1C (centres undefined) | 79
CC1(c2ccccc2)C(=O)NC(=O)NC1=O | 224
O=C(O)c1ccc(Cn2cccn2)cc1 | 192 to 193
N#CCC(=O)N1CCOCC1 | 87 to 89
Cc1nc([N+](=O)[O-])cn1CCC(N)=NO | 207
Ic1cccc(I)c1I | 116
CCOC(=O)c1[nH]c(C)c(C(=O)OCC)c1C | 137
O=C(Oc1ccccc1)n1c(C(F)(F)F)nc2cc(Cl)c(Cl)cc21 | 103
N#Cc1ccc(C[C@H](NC(=O)OCC2c3ccccc3-c3ccccc32)C(=O)O)cc1 | 189
Cc1cc(C)c2c(=O)n(-c3ccc(Br)cc3)c(S)nc2n1 | 335 to 337
Cc1cncc(N2CCC(C(=O)O)CC2)n1 | 151 to 152

Compound | melting point [°C]
Cc1cc(=O)oc2cc(N)ccc12 | 227
COc1ccc(C(=O)c2ccc(C)cc2)cc1OC | 109
c1ccc(C2OCCCO2)cc1 | 41
O=C1C(=Cc2ccccc2)Cc2ccccc21 | 110
C1=C(c2ccccc2)CCCC1 | -11
CCC(C)(O)C(=O)O (centres undefined) | 74
NNC(=O)c1ccc2c(c1)OCO2 | 174
CCOC(=O)COc1cccc2ccccc12 | 56.5
COc1cccc2cc(C(=O)c3cc4ccccc4o3)oc12 | 154 to 155
CC(=O)c1cc(Cl)ccc1Cl | 12
CC(C)(C)c1cc(C=O)cc(C(C)(C)C)c1 | 82 to 87
CCOC(=O)Cn1cnc(Cl)c1Cl | 65 to 67
O=C(N[C@@H](Cc1ccc(F)cc1)C(=O)O)OCC1c2ccccc2-c2ccccc21 | 185
CN(C)CCCN | -60
Cc1cnc(N)c(I)c1 | 88
O=C(N[C@@H](C(=O)O)c1ccccc1)OCC(Cl)(Cl)Cl | 141 to 142
COc1cccc(CO)c1OC | 48 to 51
Nc1nn2c(C(F)(F)F)cc(-c3cccs3)nc2c1/N=N/c1ccc(F)cc1 | 220
CCN(CC)CC#CCOC(=O)C(O)(c1ccccc1)C1CCCCC1 (centres undefined) | 130
CCCc1cccc(O)c1 | 26
O=C1OC(c2ccccc2)=N/C1=C\c1cccc(/C=C2\N=C(c3ccccc3)OC2=O)c1 | 247
CC(C)C(=O)OCC(C)(C)C(O)C(C)C (centres undefined) | -50
Nc1ccc(C(=O)O)cc1[N+](=O)[O-] | 290
CN1C(=O)CN=C(c2ccccc2)c2cc([N+](=O)[O-])ccc21 | 157
Fc1c(F)c(-c2c(F)c(F)c(Br)c(F)c2F)c(F)c(F)c1Br | 113 to 115
O=S1(=O)OC(c2cc(Cl)c(O)c(Br)c2)(c2cc(Cl)c(O)c(Br)c2)c2ccccc21 | 230

Compound | melting point [°C]
COc1ccc(C2CCCCC2)cc1N | 66 to 68
N[C@@H](CCCCNC(=O)OCc1ccccc1)C(=O)O | 259
NC(=O)NC12CC3CC(CC(C3)C1)C2 | 250
CCN1C(=O)OC(C)(C)C1=O | 76.5
CN1C(=O)C(=NNC(N)=S)c2ccccc21 | 245
COc1cc(C)c(CCl)cc1CCl | 78
CNC(=O)N(C)c1nnc(C(F)(F)F)s1 | 136
Cc1c(F)cccc1CC#N | 47
Cc1ccc(S(=O)(=O)N(CCO)CCO)cc1 | 94 to 100
O=S(=O)(Cl)c1ccc2c(c1)CCO2 | 84 to 85
O=C(Cl)c1cccc(C(=O)Cl)n1 | 59
C12C3C4C1C1C2C3C41 (centres undefined) | 126
Cc1ccc(O)c(C=O)c1 | 56
CCC(=O)Nc1ccccc1 | 106
COc1cc(C=C2C(=O)NN=C2c2c(O)c3ccccc3n(C)c2=O)cc(OC)c1OC | 196
CC(C)n1cc(C#N)c(=O)n(Cc2ccccc2)c1=O | 151 to 154
CC1CC(=O)CC2CCC3C4CCC(O)C4(C)CCC3C12C (centres undefined) | 204
COC(=O)C1CC(c2ccccc2)c2ccccc21 (centres undefined) | 91
NS(=O)(=O)c1cc(Cl)c(Cl)cc1Cl | 189
Cc1ccc(NN=C2C(=O)NN=C2C(F)(F)F)cc1 | 230
COc1ccc(CNC(N)=S)cc1 | 135 to 137
CC1(C)C(C=C(Cl)Cl)C1C(=O)OC(C#N)c1ccc(F)c(Oc2ccccc2)c1 (centres undefined) | 93.5
Brc1cc(Br)c(Oc2cc(Br)c(Br)cc2Br)cc1Br | 160 to 163
CCCCC/C=C\Br | -98
COc1ccc2ccccc2c1C#N | 94 to 98
CC(C)(C)OC(=O)N1CCC(c2nc(C(=O)O)cs2)CC1 | 162 to 166

Compound | melting point [°C]
COc1ccc(C(=O)c2noc(-c3ccc(C)cc3)c2S(=O)(=O)c2ccccc2)cc1 | 156
O=C1NC2C=CC1C2 (single isomer, unassigned; (-)) | 92 to 100
FC(F)(F)c1nn(CN2CCN(Cn3nc(C(F)(F)F)n(N=Cc4ccc5c(c4)OCO5)c3=S)CC2)c(=S)n1N=Cc1ccc2c(c1)OCO2 | 156
O=C(Nc1cccc([N+](=O)[O-])c1)c1ccccc1 | 155
COc1ccc(OC)c(S(=O)(=O)Cl)c1 | 115 to 116
C=CCC1(C2C=CCCC2)C(=O)NC(=S)NC1=O (centres undefined) | 148
CC(=O)NC1=NC(=O)C(=Cc2coc3ccc(Br)cc3c2=O)N1C | 259 to 261
O=C(O)Cc1cn(-c2ccccc2)nc1-c1ccc(Cl)cc1 | 150
CCN(CC)CC(=O)OCC(=O)C1(O)CCC2C3CCC4=CC(=O)C=CC4(C)C3C(O)CC21C (centres undefined) | 176
O=C(O)Cc1ccccc1[N+](=O)[O-] | 141
NC(=O)c1ccc(F)c(F)c1 | 134
N#C/C(=N\Nc1ccc(Cl)cc1)c1nc2ccccc2s1 | 188
O=C(O)c1cc2cccnc2s1 | 293 to 294
CC(C)(C)OC(=O)N1CCNCC1 | 47 to 49
O=c1[nH]cnc2c1cnn2C1CCCCC1 | 251 to 252
CCOc1n[nH]c(=O)c(Br)c1Br | 206
CC(=O)c1ccc(I)s1 | 128
C=CCNC(=O)C(C(F)(F)F)C(F)(F)F | 117
O=C(O)C1CC=CCC1 (centres undefined) | 17
O=[N+]([O-])c1ccsc1Cl | 51 to 52
CC(C)(NC(=O)C(Br)C(C)(C)C)c1ccccc1 (centres undefined) | 180
NCCCCCCCCN | 52
CC1=Nc2c(ccc3ccccc23)C1(C)C | 71
Nc1ccc(C=Cc2ccccc2)c(N)c1 | 116
Cc1cc2c(C#N)c3sc4ccccc4n3c(=O)c2c(C)n1 | 287
